The values below come from ChEMBL document CHEMBL4622894, “An effective method to produce 7-epitaxol from taxol in HCO3” (Bioorg Med Chem Lett, 2020).

Assay [1] has as its system Saccharomyces cerevisiae. Nature of the assay: Antifungal activity against Saccharomyces cerevisiae S288C assessed as fungal growth inhibition. The class given is functional, organism-based.
In assay [2] the test system is Saccharomyces cerevisiae. Description: Antifungal activity against Saccharomyces cerevisiae AD18 assessed as fungal growth inhibition. The class given is functional, organism-based.

The term IC50 denotes the concentration that inhibits the measured activity by half. Turning to `CC(=O)O[C@H]1C(=O)[C@]2(C)[C@H](O)C[C@H]3OC[C@@]3(OC(C)=O)[C@H]2[C@H](OC(=O)c2ccccc2)[C@]2(O)C[C@H](OC(=O)[C@H](O)[C@@H](NC(=O)c3ccccc3)c3ccccc3)C(C)=C1C2(C)C`, the values for the IC50 in assay [1] and in assay [2] were more than 100 µM and 71.5 µM, respectively.
The like results for `CC(=O)O[C@H]1C(=O)[C@@]2(C)[C@H]([C@H](OC(=O)c3ccccc3)[C@]3(O)C[C@H](OC(=O)[C@H](O)[C@@H](NC(=O)c4ccccc4)c4ccccc4)C(C)=C1C3(C)C)[C@]1(OC(C)=O)CO[C@@H]1C[C@@H]2O` [PACLITAXEL] were, in that order, more than 100 µM and more than 100 µM.
